Data from ChEMBL document CHEMBL4507319 (2021).

What was measured:
[1] = biological target: T1, Serine/threonine-protein kinase haspin (Homo sapiens) (UniProt Q8TF76); settings: Compound concentration 1000.0 nM
T1 sequence (whole entry): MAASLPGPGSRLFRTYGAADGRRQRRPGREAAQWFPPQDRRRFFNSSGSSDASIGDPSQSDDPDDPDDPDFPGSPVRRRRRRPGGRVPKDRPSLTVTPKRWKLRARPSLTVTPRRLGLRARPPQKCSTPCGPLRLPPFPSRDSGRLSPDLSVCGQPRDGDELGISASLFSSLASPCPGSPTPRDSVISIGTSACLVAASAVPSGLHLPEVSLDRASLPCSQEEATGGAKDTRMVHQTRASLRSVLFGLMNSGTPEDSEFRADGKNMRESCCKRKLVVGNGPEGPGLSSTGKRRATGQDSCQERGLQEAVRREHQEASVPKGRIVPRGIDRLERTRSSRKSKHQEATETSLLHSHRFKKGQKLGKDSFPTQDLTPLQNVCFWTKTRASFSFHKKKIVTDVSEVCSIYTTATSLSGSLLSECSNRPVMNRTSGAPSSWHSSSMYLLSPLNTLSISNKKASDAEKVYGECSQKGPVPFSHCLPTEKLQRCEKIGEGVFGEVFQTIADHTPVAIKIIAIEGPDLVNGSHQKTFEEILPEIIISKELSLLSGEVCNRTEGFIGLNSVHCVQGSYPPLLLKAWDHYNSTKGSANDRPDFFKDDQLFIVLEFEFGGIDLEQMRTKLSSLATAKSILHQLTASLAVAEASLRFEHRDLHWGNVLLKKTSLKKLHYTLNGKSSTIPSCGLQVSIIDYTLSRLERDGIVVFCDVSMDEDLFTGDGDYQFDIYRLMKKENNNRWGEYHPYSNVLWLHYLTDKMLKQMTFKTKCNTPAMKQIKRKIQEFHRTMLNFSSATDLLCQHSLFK

[2] = biological target: Alpha-1D adrenergic receptor (Homo sapiens) (UniProt P25100); settings: Compound concentration 10.0 uM
[3] = biological target: T2, Serine/threonine-protein kinase Sgk2 (Homo sapiens) (UniProt Q9HBY8); settings: Compound concentration 1000.0 nM
T2 sequence (whole entry): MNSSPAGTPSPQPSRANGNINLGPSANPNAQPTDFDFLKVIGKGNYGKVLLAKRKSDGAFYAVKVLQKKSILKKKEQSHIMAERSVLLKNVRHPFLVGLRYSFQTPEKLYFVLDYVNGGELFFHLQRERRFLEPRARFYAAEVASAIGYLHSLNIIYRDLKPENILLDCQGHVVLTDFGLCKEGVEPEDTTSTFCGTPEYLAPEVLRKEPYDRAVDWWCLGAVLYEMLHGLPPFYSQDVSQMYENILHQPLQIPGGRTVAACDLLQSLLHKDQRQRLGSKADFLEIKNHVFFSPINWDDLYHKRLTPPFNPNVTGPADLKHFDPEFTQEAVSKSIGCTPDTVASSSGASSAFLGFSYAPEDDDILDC

[4] = biological target: Tyrosine-protein kinase ABL2 (Homo sapiens) (UniProt P42684); settings: Compound concentration 1000.0 nM
[5] = biological target: Serine/threonine-protein kinase PAK 3 (Homo sapiens) (UniProt O75914); settings: Compound concentration 1000.0 nM
[6] = biological target: T3, Ephrin type-B receptor 2 (Homo sapiens) (UniProt P29323); settings: Compound concentration 1000.0 nM
T3 sequence (whole entry): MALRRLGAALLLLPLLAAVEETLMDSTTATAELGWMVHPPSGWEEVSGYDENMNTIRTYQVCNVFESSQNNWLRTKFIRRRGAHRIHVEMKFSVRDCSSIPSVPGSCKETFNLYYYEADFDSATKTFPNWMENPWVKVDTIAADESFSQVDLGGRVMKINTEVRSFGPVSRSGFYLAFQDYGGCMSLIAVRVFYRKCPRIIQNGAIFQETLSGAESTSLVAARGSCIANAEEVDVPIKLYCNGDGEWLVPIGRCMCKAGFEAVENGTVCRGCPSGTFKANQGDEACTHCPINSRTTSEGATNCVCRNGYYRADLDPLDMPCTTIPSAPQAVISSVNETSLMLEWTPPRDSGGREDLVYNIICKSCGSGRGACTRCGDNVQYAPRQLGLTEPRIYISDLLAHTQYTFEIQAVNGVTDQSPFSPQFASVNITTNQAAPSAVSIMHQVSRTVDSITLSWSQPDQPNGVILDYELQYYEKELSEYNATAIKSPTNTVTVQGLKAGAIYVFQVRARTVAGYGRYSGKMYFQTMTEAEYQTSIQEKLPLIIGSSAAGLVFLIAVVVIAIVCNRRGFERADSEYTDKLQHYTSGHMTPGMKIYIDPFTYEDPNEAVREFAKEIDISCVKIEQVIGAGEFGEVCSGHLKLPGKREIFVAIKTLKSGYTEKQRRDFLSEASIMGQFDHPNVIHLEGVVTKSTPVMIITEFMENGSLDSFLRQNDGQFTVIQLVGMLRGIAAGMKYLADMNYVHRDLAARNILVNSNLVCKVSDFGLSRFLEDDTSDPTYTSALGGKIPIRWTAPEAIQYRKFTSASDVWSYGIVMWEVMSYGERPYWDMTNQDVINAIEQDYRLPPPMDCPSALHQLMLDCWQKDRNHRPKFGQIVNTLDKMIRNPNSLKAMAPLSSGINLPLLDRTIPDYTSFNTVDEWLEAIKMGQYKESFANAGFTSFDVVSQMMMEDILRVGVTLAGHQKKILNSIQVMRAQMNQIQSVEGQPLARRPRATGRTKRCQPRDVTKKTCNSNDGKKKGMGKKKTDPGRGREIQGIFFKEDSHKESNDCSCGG

[7] = biological target: Serine/threonine-protein kinase WNK4 (Homo sapiens) (UniProt Q96J92); settings: Compound concentration 1000.0 nM
[8] = biological target: Dual specificity tyrosine-phosphorylation-regulated kinase 1B (Homo sapiens) (UniProt Q9Y463); settings: Compound concentration 1000.0 nM
Sequence of Dual specificity tyrosine-phosphorylation-regulated kinase 1B (Homo sapiens) (Q9Y463 whole entry, looked up): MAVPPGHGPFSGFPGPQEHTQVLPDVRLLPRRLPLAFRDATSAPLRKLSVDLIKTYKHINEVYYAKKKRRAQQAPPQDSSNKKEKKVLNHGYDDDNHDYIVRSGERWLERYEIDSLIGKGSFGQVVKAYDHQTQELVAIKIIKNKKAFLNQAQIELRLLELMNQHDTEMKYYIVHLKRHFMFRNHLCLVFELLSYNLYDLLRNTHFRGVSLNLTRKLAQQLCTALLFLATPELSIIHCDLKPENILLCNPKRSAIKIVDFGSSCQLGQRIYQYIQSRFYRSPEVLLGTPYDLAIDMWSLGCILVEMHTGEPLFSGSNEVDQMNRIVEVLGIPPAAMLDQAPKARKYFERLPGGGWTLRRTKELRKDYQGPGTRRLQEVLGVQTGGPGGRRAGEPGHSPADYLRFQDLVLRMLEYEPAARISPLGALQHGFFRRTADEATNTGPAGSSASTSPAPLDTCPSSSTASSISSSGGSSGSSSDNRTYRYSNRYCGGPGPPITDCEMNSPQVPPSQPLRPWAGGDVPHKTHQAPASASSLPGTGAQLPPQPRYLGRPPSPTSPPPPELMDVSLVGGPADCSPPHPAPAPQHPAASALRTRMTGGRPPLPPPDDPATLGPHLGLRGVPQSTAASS

Sequence of Tyrosine-protein kinase ABL2 (Homo sapiens) (P42684 whole entry): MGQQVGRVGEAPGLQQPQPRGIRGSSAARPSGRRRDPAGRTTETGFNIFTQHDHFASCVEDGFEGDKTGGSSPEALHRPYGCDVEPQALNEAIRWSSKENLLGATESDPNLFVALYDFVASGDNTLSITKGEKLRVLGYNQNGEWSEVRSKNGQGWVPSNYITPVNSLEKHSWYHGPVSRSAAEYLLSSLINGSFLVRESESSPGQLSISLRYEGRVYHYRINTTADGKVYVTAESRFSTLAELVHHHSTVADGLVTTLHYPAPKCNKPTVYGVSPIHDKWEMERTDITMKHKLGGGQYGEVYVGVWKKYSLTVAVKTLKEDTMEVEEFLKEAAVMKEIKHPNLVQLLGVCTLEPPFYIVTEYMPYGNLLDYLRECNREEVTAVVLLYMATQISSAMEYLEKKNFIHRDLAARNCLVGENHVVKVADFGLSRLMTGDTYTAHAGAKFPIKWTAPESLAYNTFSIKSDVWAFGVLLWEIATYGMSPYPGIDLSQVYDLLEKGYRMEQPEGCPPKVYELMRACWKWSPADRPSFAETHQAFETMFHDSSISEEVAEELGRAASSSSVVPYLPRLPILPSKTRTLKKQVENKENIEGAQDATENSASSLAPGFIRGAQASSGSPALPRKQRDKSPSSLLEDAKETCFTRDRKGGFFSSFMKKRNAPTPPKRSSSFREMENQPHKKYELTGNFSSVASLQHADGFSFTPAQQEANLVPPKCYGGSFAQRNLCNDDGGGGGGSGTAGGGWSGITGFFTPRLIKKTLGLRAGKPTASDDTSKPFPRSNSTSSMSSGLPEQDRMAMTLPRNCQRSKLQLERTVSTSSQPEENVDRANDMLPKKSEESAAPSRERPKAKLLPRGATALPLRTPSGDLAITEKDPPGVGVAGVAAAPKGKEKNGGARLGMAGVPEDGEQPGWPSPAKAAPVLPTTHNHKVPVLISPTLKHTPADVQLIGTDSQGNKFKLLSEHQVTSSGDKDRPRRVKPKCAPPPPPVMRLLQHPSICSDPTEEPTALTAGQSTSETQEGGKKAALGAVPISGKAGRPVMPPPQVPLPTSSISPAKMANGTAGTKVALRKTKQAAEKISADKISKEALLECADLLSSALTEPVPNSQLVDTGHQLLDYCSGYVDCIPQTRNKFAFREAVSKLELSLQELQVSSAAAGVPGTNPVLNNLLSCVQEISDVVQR
Sequence of Alpha-1D adrenergic receptor (Homo sapiens) (P25100 whole entry): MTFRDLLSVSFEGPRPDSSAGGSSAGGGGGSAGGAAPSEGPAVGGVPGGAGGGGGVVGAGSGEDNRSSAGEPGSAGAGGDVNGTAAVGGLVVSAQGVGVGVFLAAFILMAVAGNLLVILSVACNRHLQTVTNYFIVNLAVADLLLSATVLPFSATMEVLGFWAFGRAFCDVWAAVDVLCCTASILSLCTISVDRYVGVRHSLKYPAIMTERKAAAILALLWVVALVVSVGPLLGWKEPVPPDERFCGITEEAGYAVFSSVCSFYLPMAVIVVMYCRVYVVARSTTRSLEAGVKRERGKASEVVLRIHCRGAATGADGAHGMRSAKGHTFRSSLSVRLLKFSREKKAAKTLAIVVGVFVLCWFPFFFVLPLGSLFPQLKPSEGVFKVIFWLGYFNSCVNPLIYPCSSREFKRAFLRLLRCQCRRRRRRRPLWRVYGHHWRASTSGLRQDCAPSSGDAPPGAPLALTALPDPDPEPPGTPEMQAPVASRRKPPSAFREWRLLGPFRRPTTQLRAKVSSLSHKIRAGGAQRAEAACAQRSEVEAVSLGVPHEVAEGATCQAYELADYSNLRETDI
Sequence of Serine/threonine-protein kinase WNK4 (Homo sapiens) (Q96J92 whole entry): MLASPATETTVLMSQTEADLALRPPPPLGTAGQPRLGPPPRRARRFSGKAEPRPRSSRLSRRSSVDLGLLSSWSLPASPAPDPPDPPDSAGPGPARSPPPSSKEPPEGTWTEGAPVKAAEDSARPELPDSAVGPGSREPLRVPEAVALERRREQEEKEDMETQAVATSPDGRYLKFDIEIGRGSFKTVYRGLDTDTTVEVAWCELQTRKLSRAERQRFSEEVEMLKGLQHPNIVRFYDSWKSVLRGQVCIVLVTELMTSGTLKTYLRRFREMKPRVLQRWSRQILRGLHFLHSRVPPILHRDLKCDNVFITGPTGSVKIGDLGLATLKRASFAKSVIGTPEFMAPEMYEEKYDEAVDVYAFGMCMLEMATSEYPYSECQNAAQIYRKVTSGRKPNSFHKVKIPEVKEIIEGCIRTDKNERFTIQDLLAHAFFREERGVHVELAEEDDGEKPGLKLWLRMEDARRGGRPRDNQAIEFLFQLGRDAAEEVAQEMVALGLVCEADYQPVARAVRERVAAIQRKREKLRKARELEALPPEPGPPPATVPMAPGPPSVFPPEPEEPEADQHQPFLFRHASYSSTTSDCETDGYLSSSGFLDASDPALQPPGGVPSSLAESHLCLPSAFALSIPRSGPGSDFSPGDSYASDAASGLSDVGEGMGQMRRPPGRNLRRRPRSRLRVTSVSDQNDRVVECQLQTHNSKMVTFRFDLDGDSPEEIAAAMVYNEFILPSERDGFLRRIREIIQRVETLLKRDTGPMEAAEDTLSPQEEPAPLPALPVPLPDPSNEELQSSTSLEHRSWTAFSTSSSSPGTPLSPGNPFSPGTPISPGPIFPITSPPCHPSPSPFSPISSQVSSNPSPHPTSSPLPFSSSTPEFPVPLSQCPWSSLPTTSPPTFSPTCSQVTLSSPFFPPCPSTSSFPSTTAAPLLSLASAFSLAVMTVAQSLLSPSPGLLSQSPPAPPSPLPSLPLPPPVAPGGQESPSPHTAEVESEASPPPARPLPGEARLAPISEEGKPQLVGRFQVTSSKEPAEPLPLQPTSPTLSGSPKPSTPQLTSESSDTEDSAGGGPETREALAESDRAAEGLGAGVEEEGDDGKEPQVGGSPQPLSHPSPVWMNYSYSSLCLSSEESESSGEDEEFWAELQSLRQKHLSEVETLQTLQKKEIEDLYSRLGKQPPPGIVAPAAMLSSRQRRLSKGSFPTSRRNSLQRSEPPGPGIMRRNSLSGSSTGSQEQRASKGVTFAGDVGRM
Sequence of Serine/threonine-protein kinase PAK 3 (Homo sapiens) (O75914 whole entry, looked up): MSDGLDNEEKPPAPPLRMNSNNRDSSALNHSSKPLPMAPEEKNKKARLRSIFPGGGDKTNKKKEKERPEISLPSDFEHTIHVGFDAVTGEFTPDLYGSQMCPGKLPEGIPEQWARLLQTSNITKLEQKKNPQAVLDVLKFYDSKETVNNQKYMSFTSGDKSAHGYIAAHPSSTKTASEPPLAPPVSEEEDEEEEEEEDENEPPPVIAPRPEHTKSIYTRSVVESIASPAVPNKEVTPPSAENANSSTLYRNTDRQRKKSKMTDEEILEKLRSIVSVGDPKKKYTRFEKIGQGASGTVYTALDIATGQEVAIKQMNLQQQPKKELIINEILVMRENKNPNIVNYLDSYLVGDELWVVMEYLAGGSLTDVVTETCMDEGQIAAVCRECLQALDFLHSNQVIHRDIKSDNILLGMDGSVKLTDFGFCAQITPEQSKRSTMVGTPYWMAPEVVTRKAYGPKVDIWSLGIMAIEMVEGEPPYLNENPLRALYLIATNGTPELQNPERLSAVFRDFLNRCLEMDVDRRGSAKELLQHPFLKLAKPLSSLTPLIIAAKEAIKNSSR

CC1=C(C#N)C(c2ccc3c(c2)c(NC(=O)c2ccccc2C)nn3C)C(C#N)=C(C)N1 [BAY-974]
inactive: residual activity [1] 71% | inhibition [2] 4.71% | residual activity [3] 73% | residual activity [4] 99% | residual activity [5] 67% | residual activity [6] 86% | residual activity [7] 95% | residual activity [8] 63%

CCc1ccccc1C(=O)Nc1n[nH]c2c(C)c(F)c(C3C(C#N)=C(C)N(C)C(C)=C3C#N)cc12 [BAY-3827]
inactive: residual activity [1] 100% | inhibition [2] 2.75% | residual activity [3] 100% | residual activity [4] 92% | residual activity [5] 86% | residual activity [6] 76% | residual activity [7] 94% | residual activity [8] 100%
